{"source": "patent US12440584B2", "about": "“Macrocyclic ligands with pendant chelating moieties and complexes thereof” (LUMIPHORE, INC., priority 2018, dated 2025)", "assay_type_in_all_cases": "physicochemical", "key": {"[1]": {"experiment": "Luminescence titration of ligand 43 with europium chloride", "conditions": "383 nm (ligand), 357 nm (complex)", "experimental": "Titration of ligand 43 was also performed by luminescence (FIG. 5), monitoring the europium signal at 612 nm upon photoexcitation of the solution at 340 nm. The ligand solution used for the UV-vis titration of 43 mentioned above was first diluted 1:10 in TBS buffer. Similarly, the 1.299 mM stock europium solution was separately diluted 1:10 with water. […] The 32.99 μL equivalence point gives extinction coefficients of 14,400 M^−1 cm^−1 at 383 nm and 14,200 M^−1 cm^−1 at 357 nm for 43 and 43 Eu respectively. Averaging the values from both UV-vis and luminescence titration experiments of 43 yields extinction coefficients of 13,700 M^−1 cm^−1 at 383 nm and 13,500 M^−1 cm^−1 at 357 nm for 43 and 43 Eu respectively."}, "[2]": {"experiment": "UV-vis titration with europium chloride for extinction coefficients", "experimental": "In order to determine accurate extinction coefficients for 16 and 16·Eu, titration experiments using europium chloride as the titrant were performed. Europium chloride hexahydrate (13.22 mg, 0.03608 mmol) was dissolved into 5 mM citrate buffer (pH=4) using a 100 mL volumetric flask to give a 0.3608 mM europium chloride solution, which was then titrated into a 0.5 mL solution of 16 in TBS buffer (Tris-buffered saline, 50 mM Tris, 150 mM NaCl, pH=7.6) using 5 μL aliquots. The UV-vis spectra were adjusted for the increase in solvent volume due to each injection. The results of the UV-vis titration are plotted in FIG. 3.\nThe volume of europium chloride corresponds to 16.70 nmol of europium, meaning the starting concentration of ligand 16 was 33.40 μM. […] These absorbance and concentration values yield extinction coefficients of 13,600 M^−1 cm^−1 and 14,300 M^−1 cm^−1 for the ligand 16 and the complex 16·Eu respectively.\nIn order to determine accurate extinction coefficients for 43 and 43 Eu, titration experiments using europium chloride as the titrant were performed. Europium chloride hexahydrate (47.58 mg, 0.1299 mmol) was dissolved into 50 mM citrate buffer (pH=4) using a 10 mL volumetric flask to give a 12.99 mM europium chloride solution, which was then transferred to a 100 mL volumetric flask and diluted 1:10 with water. The resulting 1.299 mM europium chloride solution (in 5 mM citrate buffer) was then titrated into a 1 mL solution of 43 in TBS buffer using 5 μL aliquots. The UV-vis spectra were adjusted for the increase in solvent volume due to each injection. The results of the UV-vis titration are plotted in FIG. 4.\nThe volume of europium chloride corresponds to 47.46 nmol of europium, meaning the starting concentration of ligand 43 was 47.46 μM. […] These absorbance and concentration values yield extinction coefficients of 13,000 M^−1 cm^−1 and 12,800 M^−1 cm^−1 for the ligand and complex respectively."}, "[3]": {"experiment": "Photophysical characterization of Eu complexes (UV-vis, luminescence, quantum yield, lifetime)", "conditions": "TBS buffer, pH 7.6", "experimental": "The europium complexes of ligands 16, 29, 33, 40, and 43 were prepared by separately dissolving each ligand (2 mg) into methanol (200 μL). Excess europium chloride hexahydrate (˜5 equivalents) was dissolved in methanol (200 μL) and the full volume was added to each of the ligand solutions. The solvent was removed, and the residue was dissolved into DMF (50 μL). The europium complexes were then purified by semi-prep HPLC on an Agilent 1260 Infinity instrument using an Eclipse XDB-C18 column (5 μm, 9.4×250 mm). The mobile phase was 10 to 30% acetonitrile in water containing 0.1% trifluoroacetic acid. The volatiles were removed from the HPLC eluents under vacuum, and the residues were separately dissolved into methanol (500 μL) to give methanolic stock solutions of each europium complex with greater than 98% purity. A few drops of these methanolic solutions were evaporated to dryness, and then the residue was dissolved into TBS buffer at a concentration of ca. 3 μM to make aqueous stock solutions (20 mL) with an absorbance of 0.05 (1 cm path length) at 365 nm. […] Quinine sulfate dissolved in 0.05 M sulfuric acid was similarly diluted to a final absorbance of 0.05 at 365 nm, and this solution was similarly (1/6, 2/6, 3/6, 4/6, and 5/6) diluted to afford six quinine sulfate reference samples of evenly spaced concentration. […] By measuring the absorbance and luminescence of these dilute solutions, the quantum yields of the new Eu complexes were determined. A 5 cm path-length quartz cell was used to measure the absorbance of these dilute solutions in order to improve the UV-vis signal-to-noise. Steady state photoluminescence measurements were collected in a 1 cm fluorescence cuvette at 365 nm excitation wavelength, 1 nm resolution, 10 nm excitation slit width, 1 nm emission slit width, and 0.2 sec integration time on an instrument that has been described elsewhere (D'Aleo, A.; Moore, E. G.; Szigethy, G.; Xu, J.; Raymond, K. N. Inorg. Chem. 2009, 48, 9316·). […]"}}}
{"smiles": "NCCOCCNC(=O)C1CCCN(C(=O)c2cccc(=O)n2O)CCCNC(=O)c2ccc(n(O)c2=O)C(=O)N[C@@H]2COC[C@@H]2NC(=O)c2ccc(c(=O)n2O)C(=O)NCCCN1C(=O)c1cccc(=O)n1O", "note": "(some centres unmarked) [Compound 43]", "values": [{"measurement": "extinction coefficient, average of UV-vis and luminescence titrations", "setting": "[1]", "result": "13,700 M^−1 cm^−1"}, {"measurement": "extinction coefficient", "setting": "[1]; luminescence titration", "result": "14,400 M^−1 cm^−1"}, {"measurement": "lambda max", "setting": "[2]; UV-vis titration, TBS buffer", "result": 383, "unit": "nm"}, {"measurement": "extinction coefficient", "setting": "[2]; UV-vis titration, at lambda max", "result": "13,000 M^−1 cm^−1"}, {"measurement": "ε at λmax", "setting": "[2]; measured by europium titration, TBS buffer", "result": "13,700 M^−1cm^−1"}, {"measurement": "ε260/ε at λmax", "setting": "[3]", "result": 1.96}, {"measurement": "ε280/ε at λmax", "setting": "[3]", "result": 1.27}, {"measurement": "λmax", "setting": "[3]", "result": 383, "unit": "nm"}]}
